# How the values were obtained:
# barnyardgrass [1] = experiment: Test A pre-/postemergence greenhouse test; type: in vivo, Echinochloa crus-galli; settings: for Barnyardgrass plant response rating: 0 to 100 scale; for Plant response rating, Barnyardgrass: 0 to 100 scale where 0 is no effect and 100 is complete control
# Outline: (§1)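 Visual injury ratings, made relative to untreated controls roughly ten days after treatment, cover both preemergence and postemergence application. Compounds in a surfactant-containing non-phytotoxic solvent were sprayed onto the soil surface after sowing and, simultaneously, onto young plants at the one- to two-leaf stage.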
# crabgrass = experiment: Test A pre-/postemergence greenhouse test; type: in vivo, Digitaria sanguinalis; settings: for Crabgrass, Large plant response rating: 0 to 100 scale; for Plant response rating, Crabgrass, Large: 0 to 100 scale where 0 is no effect and 100 is complete control
# Outline: as §1
# giant foxtail = experiment: Test A pre-/postemergence greenhouse test; type: in vivo, Setaria faberi; settings: for Foxtail, Giant plant response rating: 0 to 100 scale; for Plant response rating, Foxtail, Giant: 0 to 100 scale where 0 is no effect and 100 is complete control
# Outline: as §1
# morningglory = experiment: Test A pre-/postemergence greenhouse test; type: in vivo, Ipomoea spp.; settings: for Morningglory plant response rating: 0 to 100 scale; for Plant response rating, Morningglory: 0 to 100 scale where 0 is no effect and 100 is complete control
# Outline: as §1
# redroot pigweed = experiment: Test A pre-/postemergence greenhouse test; type: in vivo, Amaranthus retroflexus; settings: for Pigweed plant response rating: 0 to 100 scale; for Plant response rating, Pigweed: 0 to 100 scale where 0 is no effect and 100 is complete control
# Outline: as §1
# velvetleaf = experiment: Test A pre-/postemergence greenhouse test; type: in vivo, Abutilon theophrasti; settings: for Velvetleaf plant response rating: 0 to 100 scale; for Plant response rating, Velvetleaf: 0 to 100 scale where 0 is no effect and 100 is complete control
# Outline: as §1
# wheat = experiment: Test A pre-/postemergence greenhouse test; type: in vivo, Triticum aestivum; settings: for Wheat plant response rating: 0 to 100 scale; for Plant response rating, Wheat: 0 to 100 scale where 0 is no effect and 100 is complete control
# Outline: as §1
# corn = experiment: Test A pre-/postemergence greenhouse test; type: in vivo, Zea mays; settings: for Corn plant response rating: 0 to 100 scale; for Plant response rating, Corn: 0 to 100 scale where 0 is no effect and 100 is complete control
# Outline: as §1
# rice = experiment: Test C flooded paddy test; type: in vivo, Oryza sativa; settings: Flood
# Outline: (§2)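 Pots were flooded to 3 cm above the soil surface at treatment, compound applied directly to the paddy water, and that depth held throughout. Plants were kept in a greenhouse for 13 to 15 days, then visually rated against untreated controls.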
# umbrella sedge = experiment: Test C flooded paddy test; type: in vivo, Cyperus difformis; settings: Flood
# Outline: as §2
# duck salad = experiment: Test C flooded paddy test; type: in vivo, Heteranthera limosa; settings: Flood
# Outline: as §2
# barnyardgrass [2] = experiment: Test C flooded paddy test; type: in vivo, Echinochloa crus-galli; settings: Flood
# Outline: as §2
# [3] = Postemergence, 125 g ai/ha, 0 is no effect, 100 is complete control
# [4] = Postemergence, 500 g ai/ha, 0 is no effect, 100 is complete control
# [5] = Preemergence, 125 g ai/ha, 0 no effect, 100 complete control
# [6] = 31 g ai/ha, scale 0 to 100 (0 no effect, 100 complete control)
# [7] = 62 g ai/ha, scale 0 to 100, 0 no effect, 100 complete control, 13 to 15 days
# [8] = 125 g ai/ha, scale 0 to 100, 0 no effect, 100 complete control, 13 to 15 days
# [9] = 250 g ai/ha, scale 0 to 100, 0 no effect, 100 complete control, 13 to 15 days
# [10] = 250 g ai/ha, scale 0 to 100 (0 no effect, 100 complete control)
smiles,measurement,setting,value
Cn1nc(C(F)(F)F)c(CS(=O)(=O)c2cc(F)cc[n+]2[O-])c1Cl [Compound 41],Barnyardgrass plant response rating,barnyardgrass [1]; [3],0
same,Barnyardgrass plant response rating,barnyardgrass [1]; [4],0
same,Barnyardgrass plant response rating,barnyardgrass [1]; [5],0
same,"Plant response rating, Barnyardgrass","barnyardgrass [1]; Preemergence, 500 g ai/ha",60
same,"Crabgrass, Large plant response rating",crabgrass; [3],0
same,"Crabgrass, Large plant response rating",crabgrass; [4],0
same,"Crabgrass, Large plant response rating",crabgrass; [5],0
same,"Plant response rating, Crabgrass, Large","crabgrass; Preemergence, 500 g ai/ha",0
same,"Foxtail, Giant plant response rating",giant foxtail; [3],0
same,"Foxtail, Giant plant response rating",giant foxtail; [4],0
same,"Foxtail, Giant plant response rating",giant foxtail; [5],0
same,"Plant response rating, Foxtail, Giant","giant foxtail; Preemergence, 500 g ai/ha",0
same,Morningglory plant response rating,morningglory; [3],0
same,Morningglory plant response rating,morningglory; [4],0
same,Morningglory plant response rating,morningglory; [5],0
same,"Plant response rating, Morningglory","morningglory; Preemergence, 500 g ai/ha",20
same,Pigweed plant response rating,redroot pigweed; [3],0
same,Pigweed plant response rating,redroot pigweed; [4],0
same,Pigweed plant response rating,redroot pigweed; [5],0
same,"Plant response rating, Pigweed","redroot pigweed; Preemergence, 500 g ai/ha",0
same,Velvetleaf plant response rating,velvetleaf; [3],0
same,Velvetleaf plant response rating,velvetleaf; [4],0
same,Velvetleaf plant response rating,velvetleaf; [5],0
same,"Plant response rating, Velvetleaf","velvetleaf; Preemergence, 500 g ai/ha",0
same,Wheat plant response rating,wheat; [3],0
same,Wheat plant response rating,wheat; [4],0
same,Wheat plant response rating,wheat; [5],0
same,"Plant response rating, Wheat","wheat; Preemergence, 500 g ai/ha",0
same,Corn plant response rating,corn; [3],0
same,Corn plant response rating,corn; [4],0
same,Corn plant response rating,corn; [5],0
same,"Plant response rating, Corn","corn; Preemergence, 500 g ai/ha",30
same,"Plant response rating, Rice",rice; [6],0
same,"Plant response rating, Rice",rice; [7],0
same,"Plant response rating, Rice",rice; [8],0
same,"Plant response rating, Rice",rice; [9],15
same,"Plant response rating, Sedge, Umbrella",umbrella sedge; [6],80
same,"Plant response rating, Sedge, Umbrella",umbrella sedge; [7],80
same,"Plant response rating, Sedge, Umbrella",umbrella sedge; [8],80
same,"Plant response rating, Sedge, Umbrella",umbrella sedge; [9],80
same,"Plant response rating, Ducksalad",duck salad; [6],75
same,"Plant response rating, Ducksalad",duck salad; [7],75
same,"Plant response rating, Ducksalad",duck salad; [8],75
same,"Plant response rating, Ducksalad",duck salad; [9],80
same,"Plant response rating, Barnyardgrass",barnyardgrass [2]; [6],0
same,"Plant response rating, Barnyardgrass",barnyardgrass [2]; [7],0
same,"Plant response rating, Barnyardgrass",barnyardgrass [2]; [8],0
same,"Plant response rating, Barnyardgrass",barnyardgrass [2]; [9],0
Cn1nc(C(F)(F)F)c(C[S+]([O-])c2cc(Cl)cc[n+]2[O-])c1OC(F)F (stereo not shown) [Compound 57],"Plant response rating, Barnyardgrass","barnyardgrass [1]; Postemergence, 125 g ai/ha",30
same,Barnyardgrass plant response rating,barnyardgrass [1]; [4],50
same,Barnyardgrass plant response rating,barnyardgrass [1]; [5],60
same,"Plant response rating, Barnyardgrass","barnyardgrass [1]; Preemergence, 500 g ai/ha",100
same,"Plant response rating, Crabgrass, Large","crabgrass; Postemergence, 125 g ai/ha",60
same,"Crabgrass, Large plant response rating",crabgrass; [4],90
same,"Crabgrass, Large plant response rating",crabgrass; [5],60
same,"Plant response rating, Crabgrass, Large","crabgrass; Preemergence, 500 g ai/ha",80
same,"Plant response rating, Foxtail, Giant","giant foxtail; Postemergence, 125 g ai/ha",30
same,"Foxtail, Giant plant response rating",giant foxtail; [4],60
same,"Foxtail, Giant plant response rating",giant foxtail; [5],30
same,"Plant response rating, Foxtail, Giant","giant foxtail; Preemergence, 500 g ai/ha",100
same,"Plant response rating, Morningglory","morningglory; Postemergence, 125 g ai/ha",30
same,Morningglory plant response rating,morningglory; [4],70
same,Morningglory plant response rating,morningglory; [5],40
same,"Plant response rating, Morningglory","morningglory; Preemergence, 500 g ai/ha",90
same,"Plant response rating, Pigweed","redroot pigweed; Postemergence, 125 g ai/ha",70
same,Pigweed plant response rating,redroot pigweed; [4],100
same,Pigweed plant response rating,redroot pigweed; [5],70
same,"Plant response rating, Pigweed","redroot pigweed; Preemergence, 500 g ai/ha",100
same,"Plant response rating, Velvetleaf","velvetleaf; Postemergence, 125 g ai/ha",30
same,Velvetleaf plant response rating,velvetleaf; [4],70
same,Velvetleaf plant response rating,velvetleaf; [5],50
same,"Plant response rating, Velvetleaf","velvetleaf; Preemergence, 500 g ai/ha",70
same,"Plant response rating, Wheat","wheat; Postemergence, 125 g ai/ha",50
same,Wheat plant response rating,wheat; [4],70
same,Wheat plant response rating,wheat; [5],20
same,"Plant response rating, Wheat","wheat; Preemergence, 500 g ai/ha",40
same,"Plant response rating, Corn","corn; Postemergence, 125 g ai/ha",0
same,Corn plant response rating,corn; [4],60
same,Corn plant response rating,corn; [5],0
same,"Plant response rating, Corn","corn; Preemergence, 500 g ai/ha",0
same,"Plant response rating, Rice",rice; [7],0
same,"Plant response rating, Rice",rice; [9],65
same,"Plant response rating, Sedge, Umbrella",umbrella sedge; [9],100
same,"Plant response rating, Ducksalad",duck salad; [7],40
same,"Plant response rating, Ducksalad",duck salad; [9],95
same,"Plant response rating, Barnyardgrass",barnyardgrass [2]; [7],15
same,"Plant response rating, Barnyardgrass",barnyardgrass [2]; [9],20
Cn1nc(C(F)(F)F)c(C(Cl)S(=O)(=O)c2ccc(Cl)c[n+]2[O-])c1Cl (racemic) [Compound 21],Barnyardgrass plant response rating,barnyardgrass [1]; [3],0
same,Barnyardgrass plant response rating,barnyardgrass [1]; [4],30
same,Barnyardgrass plant response rating,barnyardgrass [1]; [5],60
same,"Plant response rating, Barnyardgrass","barnyardgrass [1]; Preemergence, 500 g ai/ha",90
same,"Crabgrass, Large plant response rating",crabgrass; [3],20
same,"Crabgrass, Large plant response rating",crabgrass; [4],40
same,"Crabgrass, Large plant response rating",crabgrass; [5],60
same,"Plant response rating, Crabgrass, Large","crabgrass; Preemergence, 500 g ai/ha",80
same,"Foxtail, Giant plant response rating",giant foxtail; [3],0
same,"Foxtail, Giant plant response rating",giant foxtail; [4],40
same,"Foxtail, Giant plant response rating",giant foxtail; [5],80
same,"Plant response rating, Foxtail, Giant","giant foxtail; Preemergence, 500 g ai/ha",90
same,Morningglory plant response rating,morningglory; [3],0
same,Morningglory plant response rating,morningglory; [4],0
same,"Plant response rating, Morningglory","morningglory; Preemergence, 500 g ai/ha",0
same,Pigweed plant response rating,redroot pigweed; [3],0
same,Pigweed plant response rating,redroot pigweed; [4],0
same,Pigweed plant response rating,redroot pigweed; [5],40
same,Velvetleaf plant response rating,velvetleaf; [3],0
same,Velvetleaf plant response rating,velvetleaf; [4],0
same,Velvetleaf plant response rating,velvetleaf; [5],0
same,"Plant response rating, Velvetleaf","velvetleaf; Preemergence, 500 g ai/ha",0
same,Wheat plant response rating,wheat; [3],0
same,Wheat plant response rating,wheat; [4],0
same,Wheat plant response rating,wheat; [5],0
same,"Plant response rating, Wheat","wheat; Preemergence, 500 g ai/ha",0
same,Corn plant response rating,corn; [3],0
same,Corn plant response rating,corn; [4],0
same,Corn plant response rating,corn; [5],0
same,"Plant response rating, Corn","corn; Preemergence, 500 g ai/ha",0
same,"Plant response rating, Rice",rice; [6],0
same,"Plant response rating, Rice",rice; [7],0
same,"Plant response rating, Rice",rice; [8],0
same,"Plant response rating, Rice",rice; [10],0
same,"Plant response rating, Sedge, Umbrella",umbrella sedge; [6],0
same,"Plant response rating, Sedge, Umbrella",umbrella sedge; [7],0
same,"Plant response rating, Sedge, Umbrella",umbrella sedge; [8],40
same,"Plant response rating, Sedge, Umbrella",umbrella sedge; [9],90
same,"Plant response rating, Ducksalad",duck salad; [6],0
same,"Plant response rating, Ducksalad",duck salad; [7],0
same,"Plant response rating, Ducksalad",duck salad; [8],0
same,"Plant response rating, Ducksalad",duck salad; [10],90
same,"Plant response rating, Barnyardgrass",barnyardgrass [2]; [6],0
same,"Plant response rating, Barnyardgrass",barnyardgrass [2]; [7],0
same,"Plant response rating, Barnyardgrass",barnyardgrass [2]; [8],0
same,"Plant response rating, Barnyardgrass",barnyardgrass [2]; [10],20

# From US20100298141A1, “SUBSTITUTED PYRIDINE N-OXIDE HERBICIDES” (E. I. DU PONT DE NEMOURS AND COMPANY, priority 2007, published 2010)
